Consider 24 molecules from patent publication US12371428B2 (Exelixis, Inc., priority 2019, dated 2025).

Experiment [1] concerns the target Human MET (residues 956-1390) (Homo sapiens (Human), UniProt P08581). The experiment is described as follows: Human Met kinase assay, HTRF KinEase (Example D-2). In kind it is biochemical. The note with it: protocol of Example D-2 (other compounds); read-out: c-Met IC50. In a few lines:
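MET kinase domain (956-1390), 0.1 ng/well, in buffer with 5 mM MgCl2, 1 mM DTT and 1 mM MnCl2, phosphorylated a biotinylated peptide at ATP Km for 40 min at RT; 10 concentrations, 3% DMSO final. EDTA-stopped HTRF read after 60 min; IC50 from a 4-parameter logistic fit.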

For experiment [2], the target named is Mer (phospho-Mer, MERTK-transfected 293A cells) (Homo sapiens (Human), UniProt Q12866). The experiment is described as follows: Mer autophosphorylation ELISA in transient transfected 293A cells (Example H). The class given is cell-based. The note with it: cellular activity; Mer autophosphorylation ELISA in transient transfected 293A cells. The procedure, abridged:
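293A cells transiently transfected with human MERTK were treated 1 h in serum-free medium with an 8-point compound dilution (0.3% DMSO final). Lysates were assayed by phospho-Mer sandwich ELISA against a phospho-Mer standard; IC50 came from a 4-parameter logistic fit, normalised to DMSO (100%) and reference-inhibitor (0%) controls.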

Counter-ions that a name gives are not always drawn.

Chain of Human MET (residues 956-1390) (P08581 956-1390): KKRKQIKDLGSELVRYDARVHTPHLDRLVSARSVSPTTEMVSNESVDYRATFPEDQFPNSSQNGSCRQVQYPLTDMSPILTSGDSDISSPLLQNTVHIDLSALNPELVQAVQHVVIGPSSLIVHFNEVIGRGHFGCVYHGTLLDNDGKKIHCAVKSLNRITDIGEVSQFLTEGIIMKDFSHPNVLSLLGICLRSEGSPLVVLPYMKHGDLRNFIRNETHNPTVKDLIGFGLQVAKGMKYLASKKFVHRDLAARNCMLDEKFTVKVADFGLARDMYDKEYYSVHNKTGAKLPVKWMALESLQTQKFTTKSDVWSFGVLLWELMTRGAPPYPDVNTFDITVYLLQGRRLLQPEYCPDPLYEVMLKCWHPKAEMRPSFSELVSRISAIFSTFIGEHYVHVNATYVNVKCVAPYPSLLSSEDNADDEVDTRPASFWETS
Chain of Mer (phospho-Mer, MERTK-transfected 293A cells) (Q12866 21-999): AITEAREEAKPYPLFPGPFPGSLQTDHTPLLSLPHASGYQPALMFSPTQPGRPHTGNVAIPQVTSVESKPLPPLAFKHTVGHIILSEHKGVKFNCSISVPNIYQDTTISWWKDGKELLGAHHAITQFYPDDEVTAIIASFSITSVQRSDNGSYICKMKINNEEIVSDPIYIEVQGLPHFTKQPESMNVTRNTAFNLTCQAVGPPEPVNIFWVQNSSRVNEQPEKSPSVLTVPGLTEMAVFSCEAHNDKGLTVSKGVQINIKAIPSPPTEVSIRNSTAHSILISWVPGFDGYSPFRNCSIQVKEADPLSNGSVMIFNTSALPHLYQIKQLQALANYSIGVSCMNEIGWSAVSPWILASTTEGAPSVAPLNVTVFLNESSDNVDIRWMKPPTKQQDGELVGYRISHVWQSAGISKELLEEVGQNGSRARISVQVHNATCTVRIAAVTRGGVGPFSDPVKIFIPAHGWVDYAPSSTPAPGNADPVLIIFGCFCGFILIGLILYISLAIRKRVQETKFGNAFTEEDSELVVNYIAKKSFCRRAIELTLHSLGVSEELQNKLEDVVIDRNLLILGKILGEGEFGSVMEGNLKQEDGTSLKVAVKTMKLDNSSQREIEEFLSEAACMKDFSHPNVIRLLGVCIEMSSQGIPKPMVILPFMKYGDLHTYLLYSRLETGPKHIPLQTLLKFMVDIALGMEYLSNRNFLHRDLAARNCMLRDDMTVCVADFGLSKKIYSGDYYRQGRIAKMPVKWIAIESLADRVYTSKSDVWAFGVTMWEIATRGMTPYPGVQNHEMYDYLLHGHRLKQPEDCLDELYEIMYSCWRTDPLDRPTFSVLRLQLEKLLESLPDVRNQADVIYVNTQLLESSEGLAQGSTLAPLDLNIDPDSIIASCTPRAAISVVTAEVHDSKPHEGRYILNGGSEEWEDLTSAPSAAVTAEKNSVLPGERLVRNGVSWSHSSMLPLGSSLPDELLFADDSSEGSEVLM

`CCc1nc(C)c(-c2ccc(F)cc2C)c(O)c1C(=O)Nc1ccc(Oc2ccnc3ccc(OC)nc23)c(F)c1` [Compound 206, 2-Ethyl-N-[3-fluoro-4-[(6-methoxy-1,5-naphthyridin-4-yl)oxy]phenyl]-5-(4-fluoro-2-methylphenyl)-4-hydroxy-6-methylpyridine-3-carboxamide]: the IC50 in experiment [1] was 100 to 300 nM; in experiment [2], less than 100 nM.

Take `COCc1nc(C)c(-c2ccc(F)cc2C)c(O)c1C(=O)Nc1ccc(Oc2ccnc3cc(OC)c(OC)nc23)c(F)c1` [Compound 191, N-[4-[(6,7-Dimethoxy-1,5-naphthyridin-4-yl)oxy]-3-fluorophenyl]-5-(4-fluoro-2-methylphenyl)-4-hydroxy-2-(methoxymethyl)-6-methylpyridine-3-carboxamide]: the IC50 in experiment [1] and in experiment [2] was less than 100 nM in each case.

Regarding `COc1cnc2c(Oc3ccc(NC(=O)c4ccc(C)n(-c5ccc(F)cc5)c4=O)cc3)ccnc2c1` [Compound 216, 1-(4-Fluorophenyl)-N-[4-[(7-methoxy-1,5-naphthyridin-4-yl)oxy]phenyl]-6-methyl-2-oxopyridine-3-carboxamide], the half-inhibitory concentration (IC50) in experiment [1] and in experiment [2] was less than 100 nM each time.

`COc1cc2nccc(Oc3ccc(NC(=O)c4cn(C)c(C)c(-c5cccc(F)c5)c4=O)cc3F)c2nc1OC` [Compound 37, N-[4-[(6,7-Dimethoxy-1,5-naphthyridin-4-yl)oxy]-3-fluorophenyl]-5-(3-fluorophenyl)-1,6-dimethyl-4-oxopyridine-3-carboxamide hydrochloride]: the half-maximal inhibitory concentration (IC50) in experiment [1] and in experiment [2] was less than 100 nM in each case.

For the molecule `COc1cnc2c(Oc3ccc(NC(=O)c4cnc(C(F)(F)F)c(-c5ccc(F)cc5)c4O)cc3F)ccnc2c1` [Compound 241, N-[3-Fluoro-4-[(7-methoxy-1,5-naphthyridin-4-yl)oxy]phenyl]-5-(4-fluorophenyl)-4-hydroxy-6-(trifluoromethyl)pyridine-3-carboxamide], the half-maximal inhibitory concentration (IC50) is 100 to 300 nM in experiment [1] and less than 100 nM in experiment [2].

On to `COCc1nc(C)c(-c2ccc(F)cc2)c(O)c1C(=O)Nc1ccc(Oc2ccnc3cc(OC)cnc23)c(F)c1` [Compound 186, N-[3-Fluoro-4-[(7-methoxy-1,5-naphthyridin-4-yl)oxy]phenyl]-5-(4-fluorophenyl)-4-hydroxy-2-(methoxymethyl)-6-methylpyridine-3-carboxamide], for which the 50% inhibitory concentration (IC50) in experiment [1] and in experiment [2] was less than 100 nM each time.

For the molecule `COCc1nc(C)c(-c2ccc(F)cc2C)c(O)c1C(=O)Nc1ccc(Oc2ccnc3ccc(OC)nc23)c(F)c1` [Compound 195, N-[3-Fluoro-4-[(6-methoxy-1,5-naphthyridin-4-yl)oxy]phenyl]-5-(4-fluoro-2-methylphenyl)-4-hydroxy-2-(methoxymethyl)-6-methylpyridine-3-carboxamide], the half-maximal inhibitory concentration (IC50) is 100 to 300 nM in experiment [1] and less than 100 nM in experiment [2].

As to `COc1cc2nccc(Oc3ccc(NC(=O)c4cn(C)c(CO)c(-c5ccc(F)cc5)c4=O)cc3)c2nc1OC` [Compound 221, N-[4-[(6,7-Dimethoxy-1,5-naphthyridin-4-yl)oxy]phenyl]-5-(4-fluorophenyl)-6-(hydroxymethyl)-1-methyl-4-oxopyridine-3-carboxamide], the IC50 in experiment [1] and in experiment [2] was less than 100 nM throughout.

Consider `CCc1nc(C)c(-c2ccc(F)cc2)c(O)c1C(=O)Nc1ccc(Oc2ccnc3cc(OC)cnc23)cc1` [Compound 188, 2-Ethyl-5-(4-fluorophenyl)-4-hydroxy-N-[4-[(7-methoxy-1,5-naphthyridin-4-yl)oxy]phenyl]-6-methylpyridine-3-carboxamide], for which the IC50 in experiment [1] and in experiment [2] was less than 100 nM each time.

Turning to `COc1ccc2nccc(Oc3ccc(NC(=O)c4c(C)ncc(-c5ccc(F)cc5)c4O)cc3F)c2n1` [Compound 242, N-[3-Fluoro-4-[(6-methoxy-1,5-naphthyridin-4-yl)oxy]phenyl]-5-(4-fluorophenyl)-4-hydroxy-2-methylpyridine-3-carboxamide], the IC50 in experiment [1] and in experiment [2] was less than 100 nM in each case.

Regarding `COc1cc2nccc(Oc3ccc(NC(=O)c4ncc(C)n(-c5ccc(F)cc5)c4=O)cc3)c2nc1OC` [Compound 262, N-[4-[(6,7-Dimethoxy-1,5-naphthyridin-4-yl)oxy]phenyl]-4-(4-fluorophenyl)-5-methyl-3-oxopyrazine-2-carboxamide], the IC50 in experiment [1] and in experiment [2] was less than 100 nM each time.

As for `COCCOc1nc2c(Oc3ccc(NC(=O)c4ccc(C)n(-c5ccc(F)cc5)c4=O)cc3F)ccnc2cc1OC` [Compound 227, N-[3-Fluoro-4-[[7-methoxy-6-(2-methoxyethoxy)-1,5-naphthyridin-4-yl]oxy]phenyl]-1-(4-fluorophenyl)-6-methyl-2-oxopyridine-3-carboxamide], the IC50 in experiment [1] and in experiment [2] was less than 100 nM in each case.

Regarding `COc1ccc2nccc(Oc3ccc(NC(=O)c4cn(C)c(CO)c(-c5ccc(F)cc5)c4=O)cc3F)c2n1` [Compound 224, N-[3-Fluoro-4-[(6-methoxy-1,5-naphthyridin-4-yl)oxy]phenyl]-5-(4-fluorophenyl)-6-(hydroxymethyl)-1-methyl-4-oxopyridine-3-carboxamide], the concentration for half-maximal inhibition (IC50) in experiment [1] and in experiment [2] was less than 100 nM each time.

Regarding `COc1cc2nccc(Oc3ccc(NC(=O)c4ccc(C)n(-c5ccc(F)cc5)c4=O)cc3)c2nc1OC` [Compound 229, N-[4-[(6,7-Dimethoxy-1,5-naphthyridin-4-yl)oxy]phenyl]-1-(4-fluorophenyl)-6-methyl-2-oxopyridine-3-carboxamide], the IC50 in experiment [1] and in experiment [2] was less than 100 nM in each case.

For `COc1cnc2c(Oc3ccc(NC(=O)c4n[nH]c(C)c(-c5ccc(F)cc5C)c4=O)cc3F)ccnc2c1` [Compound 249A, N-[3-Fluoro-4-[(7-methoxy-1,5-naphthyridin-4-yl)oxy]phenyl]-5-(4-fluoro-2-methylphenyl)-6-methyl-4-oxo-1H-pyridazine-3-carboxamide], the IC50 in experiment [1] and in experiment [2] was less than 100 nM each time.

In the case of `COc1cc2nccc(Oc3ccc(NC(=O)c4cn(CC(F)(F)F)c(C)c(-c5ccc(F)cc5)c4=O)cc3F)c2cc1OC` [Compound 259, N-[4-(6,7-Dimethoxyquinolin-4-yl)oxy-3-fluorophenyl]-5-(4-fluorophenyl)-6-methyl-4-oxo-1-(2,2,2-trifluoroethyl)pyridine-3-carboxamide], the half-inhibitory concentration (IC50) in experiment [1] was 100 to 300 nM; in experiment [2] it was less than 100 nM.

On to `COc1ccc(-c2c(C)n(C(C)C)cc(C(=O)Nc3ccc(Oc4ccnc5cc(OC)c(OC)nc45)c(F)c3)c2=O)cc1` [Compound 31, N-[4-[(6,7-dimethoxy-1,5-naphthyridin-4-yl)oxy]-3-fluorophenyl]-5-(4-methoxyphenyl)-6-methyl-4-oxo-1-propan-2-ylpyridine-3-carboxamide hydrochloride], for which the IC50 in experiment [1] and in experiment [2] was less than 100 nM throughout.

Take `COCc1nc(C)c(-c2ccc(F)cc2C)c(O)c1C(=O)Nc1ccc(Oc2ccnc3cc(OC)cnc23)c(F)c1` [Compound 193, N-[3-Fluoro-4-[(7-methoxy-1,5-naphthyridin-4-yl)oxy]phenyl]-5-(4-fluoro-2-methylphenyl)-4-hydroxy-2-(methoxymethyl)-6-methylpyridine-3-carboxamide]: the IC50 in experiment [1] and in experiment [2] was less than 100 nM in each case.

Turning to `COc1ccc2nccc(Oc3ccc(NC(=O)c4c(C)n(C)cc(-c5ccc(F)cc5)c4=O)cc3F)c2n1` [Compound 243, N-[3-Fluoro-4-[(6-methoxy-1,5-naphthyridin-4-yl)oxy]phenyl]-5-(4-fluorophenyl)-1,2-dimethyl-4-oxopyridine-3-carboxamide], the figures for the IC50 in experiment [1] and in experiment [2] were greater than 300 nM and less than 100 nM, respectively.

With `COc1cnc2c(Oc3ccc(NC(=O)c4n[nH]c(C)c(-c5ccc(F)cc5)c4=O)cc3F)ccnc2c1` [Compound 246, N-[3-Fluoro-4-[(7-methoxy-1,5-naphthyridin-4-yl)oxy]phenyl]-5-(4-fluorophenyl)-6-methyl-4-oxo-1H-pyridazine-3-carboxamide], the IC50 in experiment [1] and in experiment [2] was less than 100 nM in each case.

Regarding `COc1cc2nccc(Oc3ccc(NC(=O)c4n[nH]c(C)c(-c5ccc(F)cc5C)c4=O)cc3)c2nc1OC` [Compound 247, N-[4-[(6,7-Dimethoxy-1,5-naphthyridin-4-yl)oxy]phenyl]-5-(4-fluoro-2-methylphenyl)-6-methyl-4-oxo-1H-pyridazine-3-carboxamide], the IC50 in experiment [1] and in experiment [2] was less than 100 nM in each case.

Consider `COc1cc2nccc(Oc3ccc(NC(=O)c4cn(C)cc(-c5ccccc5)c4=O)cc3F)c2nc1OC` [Compound 33, N-[4-[(6,7-Dimethoxy-1,5-naphthyridin-4-yl)oxy]-3-fluorophenyl]-1-methyl-4-oxo-5-phenylpyridine-3-carboxamide hydrochloride], for which the half-maximal inhibitory concentration (IC50) in experiment [1] and in experiment [2] was less than 100 nM each time.

Regarding `COCc1nc(C)c(-c2ccc(F)cc2)c(O)c1C(=O)Nc1ccc(Oc2ccnc3cc(OC)c(OC)nc23)cc1` [Compound 190, N-[4-[(6,7-Dimethoxy-1,5-naphthyridin-4-yl)oxy]phenyl]-5-(4-fluorophenyl)-4-hydroxy-2-(methoxymethyl)-6-methylpyridine-3-carboxamide], the IC50 in experiment [1] and in experiment [2] was less than 100 nM in each case.

In the case of `COc1ccc2nccc(Oc3ccc(NC(=O)c4c(C)ncn(-c5ccc(F)cc5)c4=O)cc3F)c2n1` [Compound 234, N-[3-Fluoro-4-[(6-methoxy-1,5-naphthyridin-4-yl)oxy]phenyl]-1-(4-fluorophenyl)-4-methyl-6-oxopyrimidine-5-carboxamide], the concentration for half-maximal inhibition (IC50) was greater than 300 nM in experiment [1] and less than 100 nM in experiment [2].
